Blank lines part the entries; values can stand above or below the compound they belong to.
Tested on: 485176-168-R4-J1-PDC complex spheroid growth
Test: Anticancer human tumor 485176-168-R4-J1-PDC patient-derived pancreatic adenocarcinoma cell line growth inhibition [RAS]
Details: for IC50: curve of first compound; for viability, T/C: stronger effect = lower value
Method in brief: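 Multi-cell-type spheroids: tumor cells plus HUVEC endothelial cells and mesenchymal stem cells. RAS-pathway inhibitors were combined with targeted agents, each dosed in half-log steps down from clinical Cmax, or from 10 microM when Cmax was unknown.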

[1] = second compound 0.000949 µM, first compound 0.00316 µM
[2] = second compound 0.000949 µM, first compound 0.01 µM
[3] = second compound 0.000949 µM, first compound 0.0316 µM
[4] = second compound 0.000949 µM, first compound 0.1 µM
[5] = second compound 0.000949 µM, first compound 0.316 µM
[6] = second compound 0.000949 µM, first compound 1 µM
[7] = second compound 0.003 µM, first compound 0.00316 µM
[8] = second compound 0.003 µM, first compound 0.01 µM
[9] = second compound 0.003 µM, first compound 0.0316 µM
[10] = second compound 0.003 µM, first compound 0.1 µM
[11] = second compound 0.003 µM, first compound 0.316 µM
[12] = second compound 0.003 µM, first compound 1 µM
[13] = second compound 0.00949 µM, first compound 0.00316 µM
[14] = second compound 0.00949 µM, first compound 0.01 µM
[15] = second compound 0.00949 µM, first compound 0.0316 µM
[16] = second compound 0.00949 µM, first compound 0.1 µM
[17] = second compound 0.00949 µM, first compound 0.316 µM
[18] = second compound 0.00949 µM, first compound 1 µM
[19] = second compound 0.03 µM, first compound 0.00316 µM
[20] = second compound 0.03 µM, first compound 0.01 µM
[21] = second compound 0.03 µM, first compound 0.0316 µM
[22] = second compound 0.03 µM, first compound 0.1 µM
[23] = second compound 0.03 µM, first compound 0.316 µM
[24] = second compound 0.03 µM, first compound 1 µM
[25] = second compound 0.0949 µM, first compound 0.00316 µM
[26] = second compound 0.0949 µM, first compound 0.01 µM
[27] = second compound 0.0949 µM, first compound 0.0316 µM
[28] = second compound 0.0949 µM, first compound 0.1 µM
[29] = second compound 0.0949 µM, first compound 0.316 µM
[30] = second compound 0.0949 µM, first compound 1 µM
[31] = second compound 0.3 µM, first compound 0.00316 µM
[32] = second compound 0.3 µM, first compound 0.01 µM
[33] = second compound 0.3 µM, first compound 0.0316 µM
[34] = second compound 0.3 µM, first compound 0.1 µM
[35] = second compound 0.3 µM, first compound 0.316 µM
[36] = second compound 0.3 µM, first compound 1 µM
[37] = second compound 0.000949 µM, first compound 0.000949 µM
[38] = second compound 0.000949 µM, first compound 0.003 µM
[39] = second compound 0.000949 µM, first compound 0.00949 µM
[40] = second compound 0.000949 µM, first compound 0.03 µM
[41] = second compound 0.000949 µM, first compound 0.0949 µM
[42] = second compound 0.000949 µM, first compound 0.3 µM
[43] = second compound 0.003 µM, first compound 0.000949 µM
[44] = second compound 0.003 µM, first compound 0.003 µM
[45] = second compound 0.003 µM, first compound 0.00949 µM
[46] = second compound 0.003 µM, first compound 0.03 µM
[47] = second compound 0.003 µM, first compound 0.0949 µM
[48] = second compound 0.003 µM, first compound 0.3 µM
[49] = second compound 0.00949 µM, first compound 0.000949 µM
[50] = second compound 0.00949 µM, first compound 0.003 µM
[51] = second compound 0.00949 µM, first compound 0.00949 µM
[52] = second compound 0.00949 µM, first compound 0.03 µM
[53] = second compound 0.00949 µM, first compound 0.0949 µM
[54] = second compound 0.00949 µM, first compound 0.3 µM
[55] = second compound 0.03 µM, first compound 0.000949 µM
[56] = second compound 0.03 µM, first compound 0.003 µM
[57] = second compound 0.03 µM, first compound 0.00949 µM
[58] = second compound 0.03 µM, first compound 0.03 µM
[59] = second compound 0.03 µM, first compound 0.0949 µM
[60] = second compound 0.03 µM, first compound 0.3 µM
[61] = second compound 0.0949 µM, first compound 0.000949 µM
[62] = second compound 0.0949 µM, first compound 0.003 µM
[63] = second compound 0.0949 µM, first compound 0.00949 µM
[64] = second compound 0.0949 µM, first compound 0.03 µM
[65] = second compound 0.0949 µM, first compound 0.0949 µM
[66] = second compound 0.0949 µM, first compound 0.3 µM
[67] = second compound 0.3 µM, first compound 0.000949 µM
[68] = second compound 0.3 µM, first compound 0.003 µM
[69] = second compound 0.3 µM, first compound 0.00949 µM
[70] = second compound 0.3 µM, first compound 0.03 µM
[71] = second compound 0.3 µM, first compound 0.0949 µM
[72] = second compound 0.3 µM, first compound 0.3 µM
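Also: spheroids exposed to compounds for seven days before readout.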
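For viability, T/C in this document: luminescence viability expressed relative to DMSO vehicle wells set as 100%.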

IC50 (second compound 0.000949 µM): > 1000 nM
IC50 (second compound 0.003 µM): > 1000 nM
IC50 (second compound 0.00949 µM): > 1000 nM
IC50 (second compound 0.03 µM): > 1000 nM
IC50 (second compound 0.0949 µM): > 1000 nM
IC50 (second compound 0.3 µM): > 1000 nM
SMILES: C=CC(=O)N1CCN(c2nc(OCC3CCCN3C)nc3c(F)c(-c4nc(N)cc(C)c4C(F)(F)F)c(Cl)cc23)C(C)C1 (stereo not drawn) + CCn1c(-c2cc(N3CCN(C)CC3)cnc2C(C)OC)c2c3cc(ccc31)-c1csc(n1)CC(NC(=O)C1CC1C)C(=O)N1CCCC(N1)C(=O)OCC(C)(C)C2
viability, T/C [1]: 95.4%
viability, T/C [2]: 86.6%
viability, T/C [3]: 100%
viability, T/C [4]: 109%
viability, T/C [5]: 114%
viability, T/C [6]: 99%
viability, T/C [7]: 85.3%
viability, T/C [8]: 89.7%
viability, T/C [9]: 87.4%
viability, T/C [10]: 103%
viability, T/C [11]: 101%
viability, T/C [12]: 97.2%
viability, T/C [13]: 89.3%
viability, T/C [14]: 88.5%
viability, T/C [15]: 96.5%
viability, T/C [16]: 108%
viability, T/C [17]: 91.7%
viability, T/C [18]: 114%
viability, T/C [19]: 95.5%
viability, T/C [20]: 97%
viability, T/C [21]: 77.2%
viability, T/C [22]: 79.7%
viability, T/C [23]: 87.6%
viability, T/C [24]: 87.8%
viability, T/C [25]: 84.4%
viability, T/C [26]: 105%
viability, T/C [27]: 80.4%
viability, T/C [28]: 80.7%
viability, T/C [29]: 76.1%
viability, T/C [30]: 81.6%
viability, T/C [31]: 72.9%
viability, T/C [32]: 72.8%
viability, T/C [33]: 82%
viability, T/C [34]: 76.6%
viability, T/C [35]: 91.8%
viability, T/C [36]: 69.3%

IC50 (second compound 0.000949 µM): > 300 nM
IC50 (second compound 0.003 µM): > 300 nM
IC50 (second compound 0.00949 µM): 82.5 nM
IC50 (second compound 0.03 µM): 121 nM
IC50 (second compound 0.0949 µM): > 300 nM
IC50 (second compound 0.3 µM): 70 nM
SMILES: CC1(C)CCC(Nc2ncc(C(F)(F)F)c(-c3c[nH]c4c(P(C)(C)=O)c(C#N)ccc34)n2)CN1 (stereo not drawn) + CCn1c(-c2cc(N3CCN(C)CC3)cnc2C(C)OC)c2c3cc(ccc31)-c1csc(n1)CC(NC(=O)C1CC1C)C(=O)N1CCCC(N1)C(=O)OCC(C)(C)C2
viability, T/C [37]: 94.9%
viability, T/C [38]: 91.1%
viability, T/C [39]: 93%
viability, T/C [40]: 59.2%
viability, T/C [41]: 55.1%
viability, T/C [42]: 49.3%
viability, T/C [43]: 93.5%
viability, T/C [44]: 101%
viability, T/C [45]: 75.3%
viability, T/C [46]: 54.5%
viability, T/C [47]: 52%
viability, T/C [48]: 54.9%
viability, T/C [49]: 84.9%
viability, T/C [50]: 96.3%
viability, T/C [51]: 104%
viability, T/C [52]: 55.8%
viability, T/C [53]: 51.5%
viability, T/C [54]: 46.9%
viability, T/C [55]: 101%
viability, T/C [56]: 92.8%
viability, T/C [57]: 76.5%
viability, T/C [58]: 64.4%
viability, T/C [59]: 49.8%
viability, T/C [60]: 45.8%
viability, T/C [61]: 87.1%
viability, T/C [62]: 76.8%
viability, T/C [63]: 76.2%
viability, T/C [64]: 57.4%
viability, T/C [65]: 61.9%
viability, T/C [66]: 54.8%
viability, T/C [67]: 89.3%
viability, T/C [68]: 93.4%
viability, T/C [69]: 70.5%
viability, T/C [70]: 57.3%
viability, T/C [71]: 47%
viability, T/C [72]: 47.2%

IC50 (second compound 0.000949 µM): 13.9 nM
IC50 (second compound 0.003 µM): 12.4 nM
IC50 (second compound 0.00949 µM): 11.6 nM
IC50 (second compound 0.03 µM): 11.2 nM
IC50 (second compound 0.0949 µM): 10.3 nM
IC50 (second compound 0.3 µM): 7.16 nM
SMILES: CCc1c2c(nc3ccc(O)cc13)-c1cc3c(c(=O)n1C2)COC(=O)[C@]3(O)CC + CCn1c(-c2cc(N3CCN(C)CC3)cnc2C(C)OC)c2c3cc(ccc31)-c1csc(n1)CC(NC(=O)C1CC1C)C(=O)N1CCCC(N1)C(=O)OCC(C)(C)C2
viability, T/C [37]: 104%
viability, T/C [38]: 77.5%
viability, T/C [39]: 64.3%
viability, T/C [40]: 30.8%
viability, T/C [41]: 16.6%
viability, T/C [42]: 9.25%
viability, T/C [43]: 95%
viability, T/C [44]: 86%
viability, T/C [45]: 55.6%
viability, T/C [46]: 27.8%
viability, T/C [47]: 16.1%
viability, T/C [48]: 9.83%
viability, T/C [49]: 81.2%
viability, T/C [50]: 77.8%
viability, T/C [51]: 50.3%
viability, T/C [52]: 32.4%
viability, T/C [53]: 16.2%
viability, T/C [54]: 7.59%
viability, T/C [55]: 70.7%
viability, T/C [56]: 72.3%
viability, T/C [57]: 52.3%
viability, T/C [58]: 28.3%
viability, T/C [59]: 15.9%
viability, T/C [60]: 12%
viability, T/C [61]: 70.1%
viability, T/C [62]: 76.8%
viability, T/C [63]: 45.2%
viability, T/C [64]: 32.5%
viability, T/C [65]: 17%
viability, T/C [66]: 9.84%
viability, T/C [67]: 78.3%
viability, T/C [68]: 62.1%
viability, T/C [69]: 47.3%
viability, T/C [70]: 27.6%
viability, T/C [71]: 15.2%
viability, T/C [72]: 6.04%

IC50 (second compound 0.000949 µM): > 1000 nM
IC50 (second compound 0.003 µM): > 1000 nM
IC50 (second compound 0.00949 µM): > 1000 nM
IC50 (second compound 0.03 µM): > 1000 nM
IC50 (second compound 0.0949 µM): > 1000 nM
IC50 (second compound 0.3 µM): > 1000 nM
SMILES: C=CC(=O)Nc1cc(Nc2nccc(-c3cn(C)c4ccccc34)n2)c(OC)cc1N(C)CCN(C)C + CCn1c(-c2cccnc2C(C)OC)c2c3cc(ccc31)N1CCOC(CC(NC(=O)C(C(C)C)N(C)C(=O)C3(F)CCN(C(=O)C#CC(C)(C)N(C)C)CC3)C(=O)N3CCCC(N3)C(=O)OCC(C)(C)C2)C1
viability, T/C [1]: 114%
viability, T/C [2]: 109%
viability, T/C [3]: 102%
viability, T/C [4]: 97.6%
viability, T/C [5]: 84.5%
viability, T/C [6]: 72%
viability, T/C [7]: 98.2%
viability, T/C [8]: 105%
viability, T/C [9]: 90.3%
viability, T/C [10]: 85.6%
viability, T/C [11]: 99.1%
viability, T/C [12]: 61.4%
viability, T/C [13]: 104%
viability, T/C [14]: 109%
viability, T/C [15]: 102%
viability, T/C [16]: 88.2%
viability, T/C [17]: 80.8%
viability, T/C [18]: 69%
viability, T/C [19]: 86.8%
viability, T/C [20]: 113%
viability, T/C [21]: 114%
viability, T/C [22]: 102%
viability, T/C [23]: 89.9%
viability, T/C [24]: 58.7%
viability, T/C [25]: 81.6%
viability, T/C [26]: 77.9%
viability, T/C [27]: 81.6%
viability, T/C [28]: 96.5%
viability, T/C [29]: 92.3%
viability, T/C [30]: 57.1%
viability, T/C [31]: 87.6%
viability, T/C [32]: 93%
viability, T/C [33]: 82.7%
viability, T/C [34]: 93.1%
viability, T/C [35]: 78.3%
viability, T/C [36]: 65.9%
